Columns and labels:
[1] = system: FLT3(ITD); assay type: binding, human
[2] = molecular target: T1, PIP5K1C (Homo sapiens, UniProt O60331); assay: KINOMEscan; assay type: binding; settings: read-out: %Ctrl @ 10000nM
T1 construct: purchased DiscoverX KINOMEscan

[3] = molecular target: T2, IGF1R (Homo sapiens, UniProt P08069); assay: KINOMEscan; assay type: binding; settings: read-out: %Ctrl @ 10000nM
T2 construct: purchased DiscoverX KINOMEscan

[4] = Protein binding; settings: human
[5] = molecular target: T3, EGFR(S752-I759del) (Homo sapiens, UniProt P00533, DEL752-759); assay: KINOMEscan; assay type: binding; settings: read-out: %Ctrl @ 10000nM
T3 construct: purchased DiscoverX KINOMEscan

[6] = molecular target: T4, CSNK1A1 (Homo sapiens, UniProt P48729); assay: KINOMEscan; assay type: binding; settings: read-out: %Ctrl @ 10000nM
T4 construct: purchased DiscoverX KINOMEscan
T4 sequence (P48729 whole entry): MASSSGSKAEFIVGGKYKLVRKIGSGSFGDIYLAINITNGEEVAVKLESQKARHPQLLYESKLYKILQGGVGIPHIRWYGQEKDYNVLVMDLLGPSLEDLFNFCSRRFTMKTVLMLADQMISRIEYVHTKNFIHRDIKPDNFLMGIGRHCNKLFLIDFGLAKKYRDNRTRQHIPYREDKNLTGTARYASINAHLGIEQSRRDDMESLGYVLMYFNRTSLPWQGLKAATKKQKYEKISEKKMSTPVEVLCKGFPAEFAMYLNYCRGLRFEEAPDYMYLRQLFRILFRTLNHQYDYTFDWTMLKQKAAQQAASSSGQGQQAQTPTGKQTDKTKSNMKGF

[7] = molecular target: T5, SIK2 (Homo sapiens, UniProt Q9H0K1); assay: KINOMEscan KdELECT; assay type: binding
T5 construct: DNA tag for qPCR (T7 phage fusion or DNA label); purchased DiscoverX KdELECT; host or cells: E. coli BL21-derived (T7 phage) or HEK-293
T5 sequence (Q9H0K1 whole entry, the tested form may be a part): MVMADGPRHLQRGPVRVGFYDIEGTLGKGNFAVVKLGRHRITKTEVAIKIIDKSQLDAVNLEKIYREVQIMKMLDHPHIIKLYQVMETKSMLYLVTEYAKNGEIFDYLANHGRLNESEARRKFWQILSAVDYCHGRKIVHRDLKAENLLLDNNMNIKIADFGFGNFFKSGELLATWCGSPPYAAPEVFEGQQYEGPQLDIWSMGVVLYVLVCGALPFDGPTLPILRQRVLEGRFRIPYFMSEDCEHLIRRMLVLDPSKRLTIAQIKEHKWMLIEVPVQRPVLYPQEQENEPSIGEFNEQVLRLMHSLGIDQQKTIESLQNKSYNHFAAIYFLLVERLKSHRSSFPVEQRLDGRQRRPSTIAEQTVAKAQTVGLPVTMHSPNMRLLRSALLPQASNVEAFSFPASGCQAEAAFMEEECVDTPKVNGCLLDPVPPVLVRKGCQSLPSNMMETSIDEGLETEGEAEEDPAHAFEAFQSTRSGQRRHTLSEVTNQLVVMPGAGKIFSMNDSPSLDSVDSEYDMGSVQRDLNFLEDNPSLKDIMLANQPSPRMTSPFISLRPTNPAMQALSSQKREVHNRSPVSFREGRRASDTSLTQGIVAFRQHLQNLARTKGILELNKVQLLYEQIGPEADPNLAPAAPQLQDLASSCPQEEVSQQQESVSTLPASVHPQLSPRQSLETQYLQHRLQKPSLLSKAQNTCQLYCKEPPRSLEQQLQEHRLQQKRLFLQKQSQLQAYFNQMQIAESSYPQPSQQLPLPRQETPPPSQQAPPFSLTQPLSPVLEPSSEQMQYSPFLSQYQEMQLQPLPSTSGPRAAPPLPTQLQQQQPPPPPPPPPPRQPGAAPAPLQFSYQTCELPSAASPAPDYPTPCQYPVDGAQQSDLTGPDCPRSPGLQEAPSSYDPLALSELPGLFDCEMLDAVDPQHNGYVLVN

[8] = molecular target: T6, EPHA1 (Homo sapiens, UniProt P21709); assay: KINOMEscan; assay type: binding; settings: read-out: %Ctrl @ 10000nM
T6 construct: purchased DiscoverX KINOMEscan

[9] = molecular target: T7, MLK3 (Homo sapiens, UniProt Q16584); assay: KINOMEscan; assay type: binding; settings: read-out: %Ctrl @ 10000nM
T7 construct: purchased DiscoverX KINOMEscan

[10] = molecular target: T8, EGFR(G719C) (Homo sapiens, UniProt P00533, G719C); assay: KINOMEscan; assay type: binding; settings: read-out: %Ctrl @ 10000nM
T8 construct: purchased DiscoverX KINOMEscan

[11] = molecular target: T9, MYLK2 (Homo sapiens, UniProt Q9H1R3); assay: KINOMEscan; assay type: binding; settings: read-out: %Ctrl @ 10000nM
T9 construct: purchased DiscoverX KINOMEscan

[12] = molecular target: T10, HIPK3 (Homo sapiens, UniProt Q9H422); assay: KINOMEscan; assay type: binding; settings: read-out: %Ctrl @ 10000nM
T10 construct: purchased DiscoverX KINOMEscan
T10 sequence (Q9H422 whole entry): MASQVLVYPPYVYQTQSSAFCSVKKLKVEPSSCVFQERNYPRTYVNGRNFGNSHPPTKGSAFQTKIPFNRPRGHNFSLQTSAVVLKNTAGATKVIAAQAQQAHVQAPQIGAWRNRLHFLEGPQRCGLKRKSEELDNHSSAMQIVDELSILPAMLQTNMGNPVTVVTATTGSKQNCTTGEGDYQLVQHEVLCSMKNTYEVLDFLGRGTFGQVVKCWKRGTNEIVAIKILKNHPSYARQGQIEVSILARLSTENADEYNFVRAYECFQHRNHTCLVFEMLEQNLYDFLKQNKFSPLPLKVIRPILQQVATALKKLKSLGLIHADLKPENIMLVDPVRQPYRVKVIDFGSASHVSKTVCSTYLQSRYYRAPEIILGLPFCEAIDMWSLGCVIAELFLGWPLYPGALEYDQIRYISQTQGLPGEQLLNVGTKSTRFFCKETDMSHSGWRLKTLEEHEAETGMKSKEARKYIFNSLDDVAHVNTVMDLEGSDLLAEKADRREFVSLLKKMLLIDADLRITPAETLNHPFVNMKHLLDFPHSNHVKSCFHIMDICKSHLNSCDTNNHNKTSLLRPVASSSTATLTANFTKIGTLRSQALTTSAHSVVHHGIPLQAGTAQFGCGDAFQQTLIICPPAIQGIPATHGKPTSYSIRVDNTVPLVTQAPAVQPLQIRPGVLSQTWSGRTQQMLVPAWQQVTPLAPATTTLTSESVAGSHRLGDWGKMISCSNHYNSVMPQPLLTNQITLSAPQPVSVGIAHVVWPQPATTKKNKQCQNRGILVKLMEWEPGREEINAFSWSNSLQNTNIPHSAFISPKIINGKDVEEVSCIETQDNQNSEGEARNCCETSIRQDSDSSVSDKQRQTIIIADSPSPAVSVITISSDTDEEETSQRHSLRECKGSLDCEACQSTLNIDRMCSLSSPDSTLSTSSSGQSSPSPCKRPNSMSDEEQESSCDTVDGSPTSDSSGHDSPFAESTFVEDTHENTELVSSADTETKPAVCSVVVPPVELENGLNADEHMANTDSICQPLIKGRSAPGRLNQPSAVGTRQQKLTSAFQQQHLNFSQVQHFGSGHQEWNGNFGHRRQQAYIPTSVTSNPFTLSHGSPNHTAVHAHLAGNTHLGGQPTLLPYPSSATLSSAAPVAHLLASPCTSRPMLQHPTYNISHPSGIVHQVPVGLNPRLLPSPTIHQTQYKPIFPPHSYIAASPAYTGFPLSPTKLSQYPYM

[13] = molecular target: T11, BRAF(V600E) (Homo sapiens, UniProt P15056, V600E); assay: KINOMEscan; assay type: binding; settings: read-out: %Ctrl @ 10000nM
T11 construct: purchased DiscoverX KINOMEscan

[14] = molecular target: T12, MINK (Homo sapiens, UniProt Q8N4C8); assay: KINOMEscan; assay type: binding; settings: read-out: %Ctrl @ 10000nM
T12 construct: purchased DiscoverX KINOMEscan

[15] = molecular target: T13, MKK7 (Homo sapiens, UniProt O14733); assay: KINOMEscan; assay type: binding; settings: read-out: %Ctrl @ 10000nM
T13 construct: purchased DiscoverX KINOMEscan
T13 sequence (O14733 whole entry): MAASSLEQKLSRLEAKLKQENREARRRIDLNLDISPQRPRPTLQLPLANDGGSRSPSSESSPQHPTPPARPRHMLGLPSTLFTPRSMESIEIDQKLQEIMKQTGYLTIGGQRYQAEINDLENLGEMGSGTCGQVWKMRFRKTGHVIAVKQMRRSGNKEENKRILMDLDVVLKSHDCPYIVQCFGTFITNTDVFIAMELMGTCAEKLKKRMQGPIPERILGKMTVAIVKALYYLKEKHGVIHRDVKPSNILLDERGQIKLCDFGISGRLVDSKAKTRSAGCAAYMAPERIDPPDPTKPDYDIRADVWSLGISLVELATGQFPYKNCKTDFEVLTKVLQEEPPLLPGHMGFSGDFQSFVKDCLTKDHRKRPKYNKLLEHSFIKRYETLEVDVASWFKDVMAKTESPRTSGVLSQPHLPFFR

[16] = molecular target: T14, SNRK (Homo sapiens, UniProt Q9NRH2); assay: KINOMEscan; assay type: binding; settings: read-out: %Ctrl @ 10000nM
T14 construct: purchased DiscoverX KINOMEscan

[17] = molecular target: T15, NEK3 (Homo sapiens, UniProt P51956); assay: KINOMEscan; assay type: binding; settings: read-out: %Ctrl @ 10000nM
T15 construct: purchased DiscoverX KINOMEscan

[18] = molecular target: T16, NEK10 (Homo sapiens, UniProt Q6ZWH5); assay: KINOMEscan; assay type: binding; settings: read-out: %Ctrl @ 10000nM
T16 construct: purchased DiscoverX KINOMEscan

[19] = molecular target: T17, FRK (Homo sapiens, UniProt P42685); assay: KINOMEscan; assay type: binding; settings: read-out: %Ctrl @ 10000nM
T17 construct: purchased DiscoverX KINOMEscan

[20] = molecular target: T18, PIK3CA(E545A) (Homo sapiens, UniProt P42336, E545A); assay: KINOMEscan; assay type: binding; settings: read-out: %Ctrl @ 10000nM
T18 construct: purchased DiscoverX KINOMEscan
T18 sequence (P42336 whole entry E545A): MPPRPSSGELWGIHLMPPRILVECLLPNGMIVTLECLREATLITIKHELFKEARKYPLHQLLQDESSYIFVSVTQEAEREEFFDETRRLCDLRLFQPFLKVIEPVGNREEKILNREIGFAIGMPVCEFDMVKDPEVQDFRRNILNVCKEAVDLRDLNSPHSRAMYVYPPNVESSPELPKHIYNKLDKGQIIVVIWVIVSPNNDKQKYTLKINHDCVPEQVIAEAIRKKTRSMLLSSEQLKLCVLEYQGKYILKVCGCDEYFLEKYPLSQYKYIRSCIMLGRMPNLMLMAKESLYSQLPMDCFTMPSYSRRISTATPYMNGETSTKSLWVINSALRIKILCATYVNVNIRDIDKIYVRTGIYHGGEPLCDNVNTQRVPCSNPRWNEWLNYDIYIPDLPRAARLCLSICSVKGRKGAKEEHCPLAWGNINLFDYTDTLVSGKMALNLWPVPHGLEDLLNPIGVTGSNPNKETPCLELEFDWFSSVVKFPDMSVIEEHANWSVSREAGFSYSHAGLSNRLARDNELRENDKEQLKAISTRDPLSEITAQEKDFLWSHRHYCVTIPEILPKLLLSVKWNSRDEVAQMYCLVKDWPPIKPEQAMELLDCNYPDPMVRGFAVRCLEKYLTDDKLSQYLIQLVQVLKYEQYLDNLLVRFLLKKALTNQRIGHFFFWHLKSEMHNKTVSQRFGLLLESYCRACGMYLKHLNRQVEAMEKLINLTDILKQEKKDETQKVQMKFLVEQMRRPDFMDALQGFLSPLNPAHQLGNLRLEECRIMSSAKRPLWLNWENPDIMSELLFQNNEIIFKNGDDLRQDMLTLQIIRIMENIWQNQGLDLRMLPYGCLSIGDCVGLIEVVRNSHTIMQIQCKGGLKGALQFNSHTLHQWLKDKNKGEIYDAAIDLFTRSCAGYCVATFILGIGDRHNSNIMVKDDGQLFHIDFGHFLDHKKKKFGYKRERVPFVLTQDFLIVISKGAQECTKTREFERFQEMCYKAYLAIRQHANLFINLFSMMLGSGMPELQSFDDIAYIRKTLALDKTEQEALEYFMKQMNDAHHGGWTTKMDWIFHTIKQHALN

[21] = molecular target: T19, RET(V804M) (Homo sapiens, UniProt P07949, V804M); assay: KINOMEscan; assay type: binding; settings: read-out: %Ctrl @ 10000nM
T19 construct: purchased DiscoverX KINOMEscan
T19 sequence (P07949 29-1114 V804M): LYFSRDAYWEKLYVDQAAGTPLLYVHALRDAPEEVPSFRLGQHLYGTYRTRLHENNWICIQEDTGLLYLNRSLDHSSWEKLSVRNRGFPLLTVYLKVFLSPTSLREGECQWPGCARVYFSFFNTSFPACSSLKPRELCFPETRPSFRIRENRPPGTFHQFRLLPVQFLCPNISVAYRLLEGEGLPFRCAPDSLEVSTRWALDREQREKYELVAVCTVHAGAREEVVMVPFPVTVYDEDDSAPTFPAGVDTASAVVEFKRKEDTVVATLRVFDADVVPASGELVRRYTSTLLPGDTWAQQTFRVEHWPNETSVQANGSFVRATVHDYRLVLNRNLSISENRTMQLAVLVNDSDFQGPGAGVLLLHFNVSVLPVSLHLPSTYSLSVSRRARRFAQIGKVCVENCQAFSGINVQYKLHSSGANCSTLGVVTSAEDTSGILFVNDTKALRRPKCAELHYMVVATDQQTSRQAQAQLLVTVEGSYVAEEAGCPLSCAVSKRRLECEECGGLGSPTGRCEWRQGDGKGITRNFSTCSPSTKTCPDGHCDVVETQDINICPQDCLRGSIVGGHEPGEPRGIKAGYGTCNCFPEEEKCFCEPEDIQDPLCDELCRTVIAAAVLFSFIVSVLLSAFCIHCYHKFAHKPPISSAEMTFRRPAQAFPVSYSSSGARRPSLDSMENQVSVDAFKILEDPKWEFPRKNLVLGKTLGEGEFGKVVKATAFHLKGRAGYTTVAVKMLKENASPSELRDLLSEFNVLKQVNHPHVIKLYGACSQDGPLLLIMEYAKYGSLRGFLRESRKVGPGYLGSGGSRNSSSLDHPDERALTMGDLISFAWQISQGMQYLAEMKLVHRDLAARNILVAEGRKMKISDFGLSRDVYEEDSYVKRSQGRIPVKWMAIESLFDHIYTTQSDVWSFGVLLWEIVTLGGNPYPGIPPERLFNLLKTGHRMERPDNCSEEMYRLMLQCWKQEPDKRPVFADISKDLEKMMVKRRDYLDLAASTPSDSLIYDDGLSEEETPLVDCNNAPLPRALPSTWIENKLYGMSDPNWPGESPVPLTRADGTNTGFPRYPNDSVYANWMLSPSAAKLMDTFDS

[22] = molecular target: T20, TSSK3 (Homo sapiens, UniProt Q96PN8); assay: KINOMEscan; assay type: binding; settings: read-out: %Ctrl @ 10000nM
T20 construct: DNA label for qPCR (T7 phage fusion or DNA tag); purchased DiscoverX scanMAX; host or cells: E. coli BL21-derived (T7 phage) or HEK-293

[23] = molecular target: T21, ACVR2A (Homo sapiens, UniProt P27037); assay: KINOMEscan; assay type: binding; settings: read-out: %Ctrl @ 10000nM
T21 construct: purchased DiscoverX KINOMEscan

[24] = molecular target: T22, ADCK3 (Homo sapiens, UniProt Q8NI60); assay: KINOMEscan; assay type: binding; settings: read-out: %Ctrl @ 10000nM
T22 construct: purchased DiscoverX KINOMEscan

[25] = molecular target: T23, p38-gamma (Homo sapiens, UniProt P53778); assay: KINOMEscan; assay type: binding; settings: read-out: %Ctrl @ 10000nM
T23 construct: purchased DiscoverX KINOMEscan

[26] = molecular target: T24, ABL1(T315I)-phosphorylated (Homo sapiens, UniProt P00519, T315I); assay: KINOMEscan; assay type: binding; settings: read-out: %Ctrl @ 10000nM
T24 construct: purchased DiscoverX KINOMEscan

[27] = molecular target: T25, MAP3K15 (Homo sapiens, UniProt Q6ZN16); assay: KINOMEscan; assay type: binding; settings: read-out: %Ctrl @ 10000nM
T25 construct: purchased DiscoverX KINOMEscan

[28] = molecular target: T26, STK16 (Homo sapiens, UniProt O75716); assay: KINOMEscan; assay type: binding; settings: read-out: %Ctrl @ 10000nM
T26 construct: purchased DiscoverX KINOMEscan

[29] = molecular target: T27, MEK4 (Homo sapiens, UniProt P45985); assay: KINOMEscan; assay type: binding; settings: read-out: %Ctrl @ 10000nM
T27 construct: purchased DiscoverX KINOMEscan

[30] = system: tissue CoA; assay: Mouse efficacy testing: tissue CoA levels; assay type: in vivo
Procedure: C57Bl6/J mice (8-week-old) were purchased from Jackson Laboratory and were fed either a regular diet (autoclavable rodent breeder diet, Labdiet) or an isocaloric, pantothenic acid-supplemented diet (1000 ppm) for 2 weeks prior to the experiment. The mice were maintained at room temperature 72° ± 2 °F, humidity 50 ± 10% and a 14 h light /10 h dark cycle with the dark cycle starting at 18:00 h. Water was supplied ad libitum. The mice were randomized into the treatment arms to achieve a normal weight distribution. […] The mice were euthanized and tissues harvested 4 h after the last dose. The tissue samples were used for total CoA, pantothenate and pantazine determinations. Blood was collected from euthanized animals, plasma or serum was prepared and stored frozen until analysis. Organs, including liver, forebrain, and hindbrain were quickly excised from euthanized animals and immediately flash frozen in liquid N2 or immersed in RNAlater® (Qiagen) overnight prior to freezing. Forebrain and hindbrain regions were identified. Total CoA was determined using 20–50 mg of tissue (liver, forebrain or hindbrain) homogenized in 2 ml of 1 mM KOH. The pH was adjusted to 12.0 with 0.25 M KOH, and incubated at 55 °C for 2 h[23]. The pH of the sample was adjusted to 8.0, and the samples were derivatized with monobromobimane (mBBr) and analyzed by HPLC equipped with a fluorescence detector.

[31] = molecular target: T28, FLT3(D835H) (Homo sapiens, UniProt P36888, D835H); assay: KINOMEscan; assay type: binding; settings: read-out: %Ctrl @ 10000nM
T28 construct: purchased DiscoverX KINOMEscan

[32] = molecular target: T29, PRKX (Homo sapiens, UniProt P51817); assay: KINOMEscan; assay type: binding; settings: read-out: %Ctrl @ 10000nM
T29 construct: purchased DiscoverX KINOMEscan

## CC(C)c1ccc(CC(=O)N2CCN(c3ccc(C#N)nn3)CC2)cc1 [PZ-2891, 6-(4-(2-(4-isopropylphenyl)acetyl)piperazin-1-yl)pyridazine-3-carbonitrile]
[1]
  %Ctrl @ 10000nM: 99%
[2]
  remaining binding at 10 µM: 100%
[3]
  remaining binding at 10 µM: 91%
[4]
  fraction unbound: 0.07
[5]
  remaining binding at 10 µM: 100%
[6]
  remaining binding at 10 µM: 66%
[7]; SIK2
  Kd: > 30 µM
[7]; SIK2 Replicate ID = 1
  Kd: > 30 µM
[7]; SIK2 Replicate ID = 2
  Kd: > 30 µM
[8]
  remaining binding at 10 µM: 95%
[9]
  remaining binding at 10 µM: 80%
[10]
  remaining binding at 10 µM: 100%
[11]
  remaining binding at 10 µM: 98%
[12]
  remaining binding at 10 µM: 81%
[13]
  remaining binding at 10 µM: 100%
[14]
  remaining binding at 10 µM: 74%
[15]
  remaining binding at 10 µM: 84%
[16]
  remaining binding at 10 µM: 85%
[17]
  remaining binding at 10 µM: 69%
[18]
  remaining binding at 10 µM: 89%
[19]
  remaining binding at 10 µM: 86%
[20]
  remaining binding at 10 µM: 64%
[21]
  remaining binding at 10 µM: 95%
[22]
  remaining binding at 10 µM: 69%
[23]
  remaining binding at 10 µM: 100%
[24]
  remaining binding at 10 µM: 100%
[25]
  remaining binding at 10 µM: 58%
[26]
  remaining binding at 10 µM: 97%
[27]
  remaining binding at 10 µM: 92%
[28]
  remaining binding at 10 µM: 98%
[29]
  remaining binding at 10 µM: 100%
[30]; 30 mg/kg PZ-2891 alone, oral gavage, 5 doses at 12 h intervals
  increase in total liver CoA: 50%
[30]; 30 mg/kg PZ-2891 plus 200 mg/kg pantothenate, oral gavage, 5 doses at 12 h intervals
  increase in liver CoA levels: 100%
[30]; 112 ppm PZ-2891 in chow, 1 week
  muscle CoA levels: not elevated
[30]; 112 ppm PZ-2891 in chow, 1000 ppm pantothenate, 1 week
  CoA levels in tissues, 1 week chow: elevated in liver, brain, and to a lesser extent, heart
[30]; male and female mice, 5 oral doses every 12 h plus 100 mg/kg pantothenate
  total CoA in liver, forebrain and hindbrain: dose-dependent increase in total CoA
[30]; one-month treatment in diet
  weights or behavior of treated animals: no difference in the weights or behavior
[30]; series of PZ-2891 doses in diet, 1000 ppm pantothenate, 4 weeks
  liver and brain CoA, 4 weeks diet: significantly elevated
[31]
  remaining binding at 10 µM: 92%
[32]
  remaining binding at 10 µM: 70%
